Laboratory results from a compilation of properties of binary mixtures (doi:10.1039/c3ra40303c).

Assay: xn = mol fraction of the nth substance listed
Conditions: 101 kPa

CC(O)C(=O)[O-].C[N+](C)(C)CCO + CCO
viscosity [mPa·s]
Conditions	x2 = 0	x2 = 0.1039	x2 = 0.2011	x2 = 0.2996	x2 = 0.3999	x2 = 0.5003	x2 = 0.601	x2 = 0.7013	x2 = 0.7987	x2 = 0.8996
293.15 K	818	553	365	–	132.5	73.48	39.35	–	–	3.602
298.15 K	559	388	263.7	165.1	101.5	57.11	31.94	14.73	–	3.207
303.15 K	393	277.4	193.2	123.9	78.06	45.19	–	12.36	6.351	–
308.15 K	283.9	203.7	–	94.9	61.01	36.35	21.38	10.49	5.524	2.548
313.15 K	209.9	152.9	110.8	74.08	48.57	29.65	17.83	8.99	4.841	2.286
318.15 K	–	117.2	86.3	58.82	39.27	24.51	–	7.773	4.27	2.059
323.15 K	122.3	–	68.43	47.45	32.22	–	12.83	6.779	–	1.862
328.15 K	95.9	–	55.07	38.8	26.76	17.33	–	5.952	–	1.685
333.15 K	76.5	–	44.95	32.13	22.49	14.8	–	5.255	3.041	1.525
338.15 K	61.9	47.9	37.15	26.9	–	12.76	8.445	4.66	2.747	1.38
343.15 K	50.76	39.73	31.06	22.76	16.36	11.09	7.459	4.145	2.498	1.265

CC(O)C(=O)[O-].C[N+](C)(C)CCO + O
viscosity [mPa·s]
Conditions	x2 = 0	x2 = 0.0992	x2 = 0.2048	x2 = 0.3008	x2 = 0.4038	x2 = 0.5026	x2 = 0.5858	x2 = 0.701	x2 = 0.7993	x2 = 0.8998
293.15 K	818	620	478	375	259.2	–	117.8	59.52	–	–
298.15 K	–	433	336.9	266.4	–	128	–	45.76	–	6.185
303.15 K	393	–	242.5	193.6	138.2	95.8	66.88	35.7	16.85	5.25
308.15 K	283.9	225.3	178.9	–	104.4	73.36	51.91	28.36	13.79	–
313.15 K	209.9	168.3	134.9	107.7	80.45	57.24	41.04	22.9	11.44	–
318.15 K	158.7	128.4	103.9	85.2	63.16	45.5	32.99	18.78	–	3.405
323.15 K	122.3	99.8	81.5	67.27	50.43	36.74	26.93	–	–	3.001
328.15 K	95.9	78.9	64.95	54	40.89	30.11	22.29	13.14	–	2.666
333.15 K	76.5	63.39	–	–	33.61	24.92	18.67	–	6.101	2.384
338.15 K	61.9	51.63	43.1	36.28	27.97	20.93	15.82	9.621	5.323	2.146
343.15 K	50.76	42.6	35.8	30.3	23.55	17.78	13.55	8.353	4.692	1.941
348.15 K	42.13	35.55	30.05	25.59	20.05	15.25	11.71	7.305	4.171	–
353.15 K	35.38	–	25.52	21.82	17.22	13.2	10.2	6.438	–	–
